System: diabetes patients
Assay: Clinical experiment examples: fasting blood glucose of diabetes patients
Type: in vivo, human
Excerpt: In another preferred embodiment of the present invention, the tea bricks after the above-mentioned about 2-year aging time are pulled apart and left in the air for about 30 days for oxidization. After the loosen tea leaves are oxidized for about 30 days, they are smashed into small particles or powders. And then another 5 parts (by weight) to 15 parts (by weight) of blended tangerine peels are taken and smashed into particles or powders. The above-mentioned tangerine peels, in particles or powders form, are blended into the above-mentioned black teas, in particles or powders form. Then the composition can be used as the traditional Chinese medical tea drinks for treating diabetes. General patients can drink the tea once or twice a day, each time 5-10 grams. Severe patients can drink twice a day, each time 10-20 grams.
Clinical Experiment Examples
Oct. 23, 2016: fasting blood glucose was 8.9 mml. The patient administrated metformin, three times a day, one tablet each time before meals.
Oct. 29, 2016: the value of fasting blood glucose was 6.8 mml, and the traditional Chinese medicine tea drinks of the present invention were administrated twice a day, each time 5 grams of the tea, with the continuation of administration of the metformin.
Subject: The patient is a person, who has a long history of diabetes. Before drinking the traditional Chinese medicine tea drinks of the present invention, the subject administrated hypoglycemic agents (metformin) for long before each meal, each time 2 tablets. Test results (measured on empty stomach at 7 o'clock in the morning)
From the above case, it can be seen that only administration of metformin to decrease blood glucose would not lead to a good controlling effect, and the average value of blood glucose was 12.3 mml with a large fluctuation that varies from the 8.5 mml to the highest 19.5 mml After drinking the traditional Chinese medicine tea drinks of the present invention (brewing 1 to 2 bags every day), the average value of blood glucose was 8.6 mml with a steady trend where the values were fluctuated within 7-10 mml without the occurrence of very high measured results.

CN(C)C(=N)N=C(N)N [metformin]
fasting blood glucose (Case 1, Oct. 23, 2016, metformin three times a day, one tablet before meals (first day reported)): 8.9 mml
fasting blood glucose (Case 1, Oct. 24, 2016, metformin only): 7.5 mml
fasting blood glucose (Case 1, Oct. 25, 2016, metformin only): 7.4 mml
fasting blood glucose (Case 1, Oct. 26, 2016, metformin only, big dinner and wine the evening before): 8.3 mml
fasting blood glucose (Case 1, Oct. 29, 2016, on metformin, day the tea drinks (twice a day, 5 grams) were started): 6.8 mml
measured average value of blood glucose (Case 1, metformin, 9 days from October 20 to October 29): 7.5 mml
blood glucose measured on empty stomach at 7 o'clock in the morning (Case 2, metformin only (2 tablets before each meal), Aug. 24, 2016): 9.4 mml
blood glucose measured on empty stomach at 7 o'clock in the morning (Case 2, metformin only, Aug. 28, 2016): 9.9 mml
blood glucose measured on empty stomach at 7 o'clock in the morning (Case 2, metformin only, Dec. 2, 2016): 11.8 mml
blood glucose measured on empty stomach at 7 o'clock in the morning (Case 2, metformin only, Dec. 9, 2016): 12.6 mml
blood glucose measured on empty stomach at 7 o'clock in the morning (Case 2, metformin only, Dec. 14, 2016): 11.9 mml
blood glucose measured on empty stomach at 7 o'clock in the morning (Case 2, metformin only, Dec. 18, 2016): 12.3 mml
blood glucose measured on empty stomach at 7 o'clock in the morning (Case 2, metformin only, Dec. 24, 2016): 12.5 mml
blood glucose measured on empty stomach at 7 o'clock in the morning (Case 2, metformin only, Dec. 28, 2016): 14.7 mml
blood glucose measured on empty stomach at 7 o'clock in the morning (Case 2, metformin only, Jan. 2, 2017): 13.3 mml
blood glucose measured on empty stomach at 7 o'clock in the morning (Case 2, metformin only, Jan. 6, 2017): 11.8 mml
blood glucose measured on empty stomach at 7 o'clock in the morning (Case 2, metformin only, Nov. 1, 2016): 14.5 mml
blood glucose measured on empty stomach at 7 o'clock in the morning (Case 2, metformin only, Nov. 5, 2016): 13.4 mml
blood glucose measured on empty stomach at 7 o'clock in the morning (Case 2, metformin only, Nov. 10, 2016): 11.1 mml
blood glucose measured on empty stomach at 7 o'clock in the morning (Case 2, metformin only, Nov. 13, 2016): 13 mml
blood glucose measured on empty stomach at 7 o'clock in the morning (Case 2, metformin only, Nov. 18, 2016): 14 mml
blood glucose measured on empty stomach at 7 o'clock in the morning (Case 2, metformin only, Nov. 20, 2016): 8.5 mml
blood glucose measured on empty stomach at 7 o'clock in the morning (Case 2, metformin only, Nov. 27, 2016): 9.4 mml
blood glucose measured on empty stomach at 7 o'clock in the morning (Case 2, metformin only, Oct. 1, 2016): 11 mml
blood glucose measured on empty stomach at 7 o'clock in the morning (Case 2, metformin only, Oct. 4, 2016): 12.7 mml
blood glucose measured on empty stomach at 7 o'clock in the morning (Case 2, metformin only, Oct. 11, 2016): 15.9 mml
blood glucose measured on empty stomach at 7 o'clock in the morning (Case 2, metformin only, Oct. 24, 2016): 19.5 mml
blood glucose measured on empty stomach at 7 o'clock in the morning (Case 2, metformin only, Sep. 3, 2016): 12.5 mml
blood glucose measured on empty stomach at 7 o'clock in the morning (Case 2, metformin only, Sep. 11, 2016): 8.7 mml
blood glucose measured on empty stomach at 7 o'clock in the morning (Case 2, metformin only, Sep. 23, 2016): 11.6 mml
average value of blood glucose (Case 2, only administration of metformin): 12.3 mml
